Experimental data as given in patent US5358936A, “Anionic furanose derivatives, methods of making and using the same” (Gordon; Paul, priority 1991, dated 1994).
Values joined by “and” are separate entries in the source; they are usually repeats but may differ in a detail not shown here. Equal values may be shown once. “Also recorded” adds a separate entry of the source.

How the values were obtained:
[1] = tested on: rat stomachs; assay: Gastric pathology following inflammatory stress and indomethacin, fed rats (Example 20); format: in vivo, male Sprague Dawley rats; settings: stress + indomethacin 30 mg/kg oral; Compound III 50 mg/kg subcutaneously where given; 24 hours
Description: (§1) Stress was induced by the following procedure. On day one, under ether anesthesia, 18 male Sprague Dawley rats were injected with a suspension of Zymosan A (1 mg/ml in normal saline; Sigma Chemical Co.) in each hind paw. Swelling developed and persisted. This treatment generated activated blood complement locally (including the C5a moiety), which then spread by the bloodstream throughout the animal.
(§2) Twenty-four hours later all rat paws were reinjected, this time with 0.1 ml of proinflammatory zymosan-activated rat serum containing additional amounts of inflammatory complement fragment C5a (as in Example 23, hereinafter). Five hours later 30 mg/kg indomethacin in an aqueous suspension was given to nine such rats by oral garage. These rats also received a subcutaneous injection of 0.1 ml normal saline. Nine other such rats were given indomethacin as above, and Compound III (50 mg/kg in normal saline subcutaneously). Four additional rats, not stressed (normal) were given water by garage as a placebo and saline subcutaneously. All rats were fed ad libitum on standard diet.
Twenty-four hours later all animals were sacrificed by ether euthanasia. Their stomachs were washed with saline and evaluated for ulcer-related pathology using an illuminated magnifying glass. This assay is similar to that reported by Kinney et al., J. Med. Chem., 33:327 (1990).

[2] = tested on: rat paw; settings: in vivo; cited from earlier work
[3] = tested on: rat stomachs; assay: Gastric pathology following inflammatory stress and indomethacin, food-deprived rats (Example 21); format: in vivo
Description: as §1, §2
In contrast to the study of Example 20, above, in this study animals were food deprived for 24 hours before and also during the 24 hours following drug treatments. All animals were subjected to the inflammatory stress as described in Example 20. Eight such rats received 30 mg/kg indomethacin, and eight rats received indomethacin and Compound III (subcut., 50 mg/kg). Four rats, not stressed, were given placebo by garage.
All animals were sacrificed by ether euthanasia 24 hours later, and their stomachs evaluated for ulcer-related pathology.
In the stressed animals given indomethacin alone, pathology was much more severe than in Example 20. For scoring, therefore, the frequency of ulcers per rat stomach was quantified, and whether they were or were not bleeding.

[4] = tested on: hind limbs; assay: Hind-foot mobility in established adjuvant arthritis (Example 27); format: in vivo, Lewis rats; settings: Compound III 50 mg/kg oral where given
Source text: Adjuvant arthritis was studied because it allows gaining of insight into effects of a drug in established and chronic inflammatory disease. Adjuvant arthritis shares certain features with rheumatoid arthritis but it is distinct. It is widely used in industry because it allows one to predict the potency of non-steroidal anti-inflammatory drugs (NSAID's) [Weichman, in Pharmaceutical Methods in the Control of Inflammation, Chang et al., eds.; Alan R. Liss, New York (1989) p. 362].
The rats used were of the Lewis strain, especially vulnerable to disease induction. Chronic polyarthritis was induced by the subcutaneous injection of complete Freund's adjuvant (CFA) into the rat tail. The CFA employed consists of 10 mg/ml heat-killed tubercle bacilli suspended in paraffin oil. An amount of 0.1 ml was injected, and the disease was allowed to develop over 14 days before daily assessments were made and treatments were initiated. Measurements that assess both increase in hind paw joint swelling and loss in hind limb function are taken.
Indomethacin was employed as a reference standard and given at 2 or 5 mg/kg. Treatment effects of Compound III, alone at 50 mg/kg given by oral gavage and in combination with indomethacin were assessed. Compound III was dissolved in water and indomethacin was suspended in water by homogenization. Both were administered sequentially by oral gavage.
Measurements by caliper include the lateral diameter of the ankle joint of each hind limb, and the dorsoventral diameter of the foot, just behind the toes. The prime measurement of function focusses on the fact that in many animals by day 14, and in most animals by day 16 after adjuvant administration, the arthritic rat can lose use of his hind limbs, which then are dragged behind him like logs. To quantify the recovery of function during treatment, a technique of Martel et al., Agents Actions, 15:403 (1984) was adapted. A blind assessment of the number of animals in each group that were able to draw their leg(s) under them and have these bear weight was carried out.

[5] = tested on: stomach ulcers; assay: Gastric ulcers in rats with corona virus infection treated with indomethacin (Example 26); format: in vivo, rat; settings: indomethacin 30 mg/kg oral; cimetidine 25 mg/kg s.c. or Compound III 17.5 mg/kg s.c. where given; P<0.02
Source text: Corona virus is a non-lethal upper respiratory viral pathogen that not infrequently infects rat colonies. It is a type of rodent coryza or catarrh, the equivalent of a disease that falls somewhere between human influenza and a severe common cold. The animals of this study suffered from this condition, a circumstance which was evident by observation, and which was confirmed by virological diagnosis at the Biological Resources Laboratory of the University of Illinois at Chicago. Since stress is a common component of peptic ulcer development in both animals and man, it was concluded that this feature of the status of these experimental animals rendered them appropriate for an ulcer study.
In this study, animals were not food deprived and were divided into treatment groups such that 15 rats received 30 mg/kg indomethacin alone (in water by oral gavage), 14 rats received indomethacin plus an injection of 25 mg/kg cimetidine subcutaneously, and 7 rats received indomethacin plus subcutaneous injection of 17.5 mg/kg of Compound III.
All animals were sacrificed by ether euthanasia 24 hours later and their stomachs evaluated for ulcer pathology. In this study ulcers were not hemorrhagic. Results are shown below as the average number of stomach ulcers per stomach.

[6] = tested on: rat stomachs; assay: Gastric pathology following inflammatory stress and indomethacin, fed rats (Example 20); set-up: species or system male Sprague Dawley rats; settings: in vivo
[7] = Solubility / dissolution in acid, water and 20 percent methanol; format: physicochemical; settings: pH 1.2; Compound III:Al 2.5 mg/ml
[8] = Physicians' Desk Reference (1990); cited from earlier work
[9] = tested on: focal submucosal lesions; assay: Ethanol-induced gastric focal lesions (Example 33); format: in vivo, rat; settings: one hour post-ethanol, 50 mg/kg
[10] = tested on: focal submucosal lesions; assay: Ethanol-induced gastric focal lesions (Example 33); format: in vivo, rat
Description: At three hours after ethanol administration, this drug continued to suppress ethanol-induced focal lesions (-57 percent).
A suspension of 25 mg/kg sucralfate+25 mg/kg Compound III:Al in combination was given as a pretreatment administration to another group in the same study. The combination produced an unanticipated augmentation of therapeutic effect against ethanol-induced focal submucosal lesions (-90 percent) at three hours post-ethanol administration. The same interactive phenomenon was also observed when Compound III was used, rather than Compound III:Al.

[11] = tested on: gastric mucosal ulcers; assay: Healing of established gastric ulcers induced by acetic acid (Example 34); format: in vivo, rat
Source text: To evaluate drug effects on peptic ulcer healing, gastric mucosal ulcers were produced in rats, after a two day fast, by a modification of the method of Konturek et al., Am. J. Med., Vol. 86, 6A, 32 (1989). Briefly, to produce a mucosal ulcer, Konturek et al. applied 100 percent acetic acid for twenty seconds to the stomach serosa through a small cylindrical mold, 4.2 mm in diameter. The aim here was to make ulceration more severe than was achieved by the Konturek group so that spontaneous healing would not be as pronounced as they found in the controls, over an experimental period of seven days.
All drugs studied were suspended in 0.25 percent (by weight) aqueous methylcellulose solution as the vehicle or diluent, which also served as the placebo given to the controls. Treatments were given once daily by oral gavage, in one milliliter of vehicle. The treatment groups were: Control; Sucralfate at 200 mg/kg; and Compound III:Al at 200 mg/kg.
At the end of the treatment period, stomachs were removed, ulcer diameters were measured, and determination was made of the presence or absence of perforation.
A second study was carried out in which ulcer evolution was permitted to take place over five additional days, in the absence and presence of treatment with Sucralfate.
A third study was begun one day following the start of study 2, in which ulcer evolution was allowed to take place over five additional days, in the absence and presence of treatment with Compound III:Al.
In another study, after ulcer induction as above, a different dosage protocol was employed at 24 hours to evaluate the interaction of Compound III and orally administered sucralfate on ulcer healing. […] Here, daily drug doses of the following were used: (a) sucralfate at 200 mg/kg, alone and (b) in combination with 80 mg/kg Compound III given by mouth at -45 minutes, and, in a third group, (c) in combination with 10 mg/kg Compound III given IV also at -45 minutes. In this interaction study, drug treatment was continued for three and not five days, as was the case for the above studies, followed by passage of two additional non-treatment days before sacrifice of animals for evaluation of stomach ulcer area and perforation.
Data from all ulcer-healing studies employing a drug dosage of 200 mg/kg and the same ulcerogenesis protocol were pooled as to the frequency of gastric perforation observed on day five, not shown separately, with the day six perforation data shown above.

[12] = Dissolution and buffering of suspensions, HCl titration (Example 16)
Source text: Note that the term "apparent pK" in this context is meant to encompass the maximization of buffering that come both from solid-state dissolution and its titration as solute.

[13] = three hours post-ethanol, 50 mg/kg, combination 25 + 25 mg/kg

## COc1ccc2c(c1)c(CC(=O)O)c(C)n2C(=O)c1ccc(Cl)cc1 [Indomethacin]
[1]
  Mean Pathology score: 1.43
  Pathology score, individual rat: 0.5 and 1.0 and 0.0 and 4.0 and 7.0
[2]
  effect on edema that develops following removal of the tourniquet, in words: not effective at any time
[3]; eight rats
  bleeding ulcers in group: 22
  total ulcers found in group: 23 ulcers
[3]; indomethacin 30 mg/kg, Compound III 50 mg/kg subcut. where given, 24 hours, P<0.001 vs indomethacin alone
  Bleeding Ulcer Frequency, Mn ± SE: 2.65 ± 0.063 Per Rat
[3]; indomethacin 30 mg/kg, Compound III 50 mg/kg subcut. where given, 24 hours, P<0.01 vs indomethacin alone
  Total Ulcer Frequency, n ± SE: 2.88 ± 0.67 Per Rat
[3]; indomethacin: all eight rats, indomethacin + Compound III: only two rats
  ulcers per affected rat: 1-5 ulcers
[4]; Day 0, indomethacin 2 mg/kg/day
  Total Immobility - Percent: 100%
[4]; Day 0, indomethacin 5 mg/kg/day
  Total Immobility - Percent: 100%
[4]; Day 1, indomethacin 2 mg/kg/day, p < 0.02
  Total Immobility - Percent: 67%
[4]; Day 1, indomethacin 5 mg/kg/day, p < 0.01
  Total Immobility - Percent: 70%
[4]; Day 2, indomethacin 2 mg/kg/day, p < 0.01
  Total Immobility - Percent: 44%
[4]; Day 2, indomethacin 5 mg/kg/day
  Total Immobility - Percent: 20%
[4]; Day 3, indomethacin 2 mg/kg/day
  Total Immobility - Percent: 44%
[4]; Day 3, indomethacin 5 mg/kg/day, control 100 (12/12)
  Total Immobility - Percent: 10%
[5]
  Ulcer Frequency per stomach, Mn ± SE: 2.53 ± 0.52 Per Stomach
[6]
  ulceration by indomethacin without stress: induced no ulceration

## sucrose octakis-(hydrogen sulfate) aluminum complex [sucralfate, reference compound]
[7]
  dissolution of suspension in acid: complete dissolution
[8]
  absorption from the gastrointestinal tract: only minimally absorbed
[9]
  change in focal lesions versus control: -100%
[9]; n = 6, control 4.17 ± 1.58, p<0.05
  Focal Lesions per Stomach: 0.00 per Stomach
[10]; pretreatment 50 mg/kg one hour before ethanol
  effect on ethanol-produced gastric pathology, in words: inhibited all focal submucosal lesions; also recorded: All large vessel vasodilation provoked by ethanol was also inhibited one hour after ethanol treatment; also recorded: at three hours all therapeutic effects of sucralfate on ethanol-produced gastric pathology were absent
[10]; [13]
  change in focal lesions versus control: +6%
  change in focal lesions versus control, study employing Compound III: +44%
[10]; three hours post-ethanol, 50 mg/kg, combination 25 + 25 mg/kg, control 2.25 ± 0.98
  Focal Lesions per Stomach, study employing Compound III: 3.25 + 1.01 per Stomach
[10]; three hours post-ethanol, 50 mg/kg, combination 25 + 25 mg/kg, n = 17, control 4.94 ± 1.41
  Focal Lesions per Stomach: 5.24 ± 1.49 per Stomach
[11]; Day 6, 200 mg/kg oral
  DRUG EFFECT on mean ulcer score: -33%
[11]; Day 6, 200 mg/kg oral once daily, * = perforation, 200 mg/kg
  Established ulcer score, individual animal (area in cm^2, + 2.0 for perforation): 2.96 and 5.75 and 3.0 and 1.0 and 0.96 and 3.5 and 1.5 and 0.1 and 1.05 and 0.4
[11]; Day 6, 200 mg/kg oral, controls 3.03 ± 0.73 (sucralfate study, not significant), 4.12 ± 0.67 (Compound III:Al study, P < 0.001)
  MEAN SCORE, established ulcers: 2.02 ± 0.55
[11]; day six, 200 mg/kg oral
  DRUG EFFECT on mean ulcer area: -43%
[11]; day six, 200 mg/kg oral, controls 2.14 ± 0.43 (sucralfate, P < 0.1), 2.32 ± 0.61 (Compound III:Al, P < 0.05)
  Established ulcer area, MEAN: 1.22 ± 0.31 CM^2
[11]; day six, three days treatment, sucralfate 200 mg/kg alone
  Established ulcer area, MEAN (comparative treatments): 2.11 ± 0.41 CM^2
[11]; pooled, 200 mg/kg, control 50, Compound III:Al P < 0.001 vs control and vs sucralfate
  Perforation As Percent: 38%
[11]; pooled, 200 mg/kg, days five and six, control 26/52
  Perforation Frequency: 12/32
[12]; 50 mg in 20 ml distilled water, initial pH 4.44 (aluminum trihydroxide), 4.91 (sucralfate), 4.23 (Compound III:Al), water alone 0.30
  HCl needed to lower pH of suspension to below pH 2.00: 0.4 meq
[12]; HCl titration
  buffering action, in words: only a minor buffering action between pH 1.73 and 1.47
[12]; sucralfate = 1
  Relative Buffering Power between pH 4.5 and 2.0: 1
